In PMC10057893, “Synthesis and Biological Evaluation of New Schiff Bases Derived from 4-Amino-5-(3-fluorophenyl)-1,2,4-triazole-3-thione” (Molecules, 2023):
Values after ≈ are worked out from the molar mass of the structure shown. Read-outs that look alike come from different tables or passages of the source.

Legend:
PC3 = assay: MTT cell viability assay; type: cell-based, human; conditions: Homo sapiens, PC-3, PC3, MTT, read-out: Cytotoxic activity IC50
Experimental: (§1) All the cell lines were purchased from the American Type Culture Collection (ATCC, Rockville, MD, USA) and cultured in strictly defined conditions according to the recommended ATCC protocol. The PC3 cells were cultured in RPMI 1640 (Roswell Park Memorial Institute, Biowest SAS, Nuaillé, France), while the MDA-MB-231 and HaCaT cells were maintained in DMEM (Dulbecco’s Modified Eagle’s Medium, Biowest SAS, Nuaillé, France) supplemented with 1% streptomycin and penicillin and in 10% heat-inactivated fetal bovine serum (FBS, Gibco BRL San Francisco, CA, USA) with 1% streptomycin and penicillin. The cells were incubated in a 37 °C/5% CO2 humidified incubator. They were cultured until 80–90% confluence was achieved. Then, they were harvested by treatment with 0.25% trypsin-0.02% EDTA (Gibco BRL, San Francisco, CA, USA) and used in the experiments. Untreated cells were used as a control. […] After 24 h of incubation, the culture medium was replaced with a fresh medium. […] Then, the medium was aspirated and formed formazan crystals were solubilized by adding isopropanol-DMSO mixture (1:1 vol). The intensity of the dissolved crystals was measured using a UVM 340 reader (ASYS Hitech GmbH, Eugendorf, Austria) at a wavelength of 570 nm. Cell viability was estimated by the percentage of MTT reduction in cells to which the tested compounds were added, compared to the control sample, where only the medium was added. The experiments were repeated three times. The IC50 was calculated using GraphPad Prism 9.0.0 (GraphPad Software).

MDA-MB-231 = assay: MTT cell viability assay; type: cell-based, human; conditions: Homo sapiens, MDA-MB-231, MTT, read-out: Cytotoxic activity IC50
Experimental: as §1

[1] = system: Bacillus subtilis ATCC 6633; assay: Broth microdilution MIC/MBC, antibacterial; type: cell-based; conditions: ATCC6633
Experimental: (§2) The minimal inhibitory concentration (MIC) was determined with the microdilution technique using 96-well polystyrene microplates (Medlab, Poland), as indicated by the European Committee on Antimicrobial Susceptibility Testing (EUCAST) guidelines. In this process, stock solutions of each tested Schiff base dissolved in dimethylsulphoxide (DMSO, Stanlab, Poland) were used at a concentration of 50 mg/mL. Before in vitro antibacterial activity detection, the basic concentration of 1000 µg/mL of each compound was prepared with Mueller–Hinton broth medium (MHB, BioMaxima, Lublin, Poland). The experiment was prepared using Mueller–Hinton broth medium in 96-well microplates. A series of two-fold dilutions of the tested compounds in the concentration range from 0.49 to 1000 μg/mL was made in culture broth medium. Then, 2 μL of bacterial inoculum with a density of 0.5 McFarland standard was added to each well. Each well was filled with a total volume of 100 μL. Then, the microtiter plates were incubated for 18 ± 2 h at 35 °C. After the incubation, the results were spectrophotometrically determined in Biotek ELx800 (Biokom, Janki, Poland) at 600 nm (OD600). The lowest concentration of the tested compounds with the absence of bacterial growth was determined as an MIC. Three replicates for each strain and compound were performed.
(§3) After incubation, 5 μL of the broth media cultured with bacteria or fungi were removed from each well of the plates used in the MIC experiments. Next, they were culturd onto the surface of the MHA medium (BioMaxima, Lublin, Poland) plate for bacteria or MHA +2% glucose plate for yeasts. The inoculated plates were incubated in the conditions mentioned above. After incubation, a visual reading of MBC or MFC values was made. […] Three replicates for each strain and compound were performed.

[2] = system: Escherichia coli ATCC 25922; assay: Broth microdilution MIC/MBC, antibacterial; type: cell-based; conditions: ATCC25922, Escherichia coli ATCC 25922
Experimental: as §2, §3

[3] = system: Staphylococcus epidermidis ATCC 12228; assay: Broth microdilution MIC/MBC, antibacterial; type: cell-based; conditions: ATCC12228
Experimental: as §2, §3

[4] = system: Micrococcus luteus ATCC 10240; assay: Broth microdilution MIC/MBC, antibacterial; type: cell-based; conditions: ATCC10240
Experimental: as §2, §3

[5] = system: Pseudomonas aeruginosa ATCC 27853; assay: Broth microdilution MIC/MBC, antibacterial; type: cell-based; conditions: ATCC27853
Experimental: as §2, §3

[6] = system: Staphylococcus aureus ATCC 6538; assay: Broth microdilution MIC/MBC, antibacterial; type: cell-based; conditions: ATCC6538
Experimental: as §2, §3

[7] = system: Klebsiella pneumoniae ATCC 13883; assay: Broth microdilution MIC/MBC, antibacterial; type: cell-based; conditions: ATCC13883, Klebsiella pneumoniae ATCC 13883
Experimental: as §2, §3

MTT cell viability assay = type: cell-based; conditions: human, HaCaT cells (immortal keratinocytes), HaCaT normal cell line, read-out: Cytotoxic activity IC50 (converted)
Experimental: as §1

[8] = system: Candida glabrata ATCC 90030; assay: Broth microdilution MIC/MFC, antifungal; type: cell-based; conditions: Nakaseomyces glabratus, ATCC90030
Experimental: (§4) To determine the antifungal activity of the newly synthesized Schiff bases against the reference strains of Candida spp., the broth microdilution method was used according to the EUCAST [52] and Clinical and Laboratory Standards Institute (CLSI) guidelines with some modifications to the medium. Before in vitro antifungal activity detection, the basic concentration of 1000 µg/mL of each compound was prepared with Mueller–Hinton broth (BioMaxima, Lublin, Poland) supplemented with 2% glucose (MHB+2% glucose). […] The final concentrations of the Schiff bases ranged from […] to 1000 µg/mL. All the reference strains of Candida spp. used were first subcultured to the Mueller–Hinton agar medium (BioMaxima, Lublin, Poland) with 2% glucose (MHA +2% glucose) at 37 °C for 24 h. Next, 2 µL of appropriate fungal suspensions was added to each well containing 100 µL of MHB + 2% glucose and the various concentrations of the tested Schiff bases.
as §3

[9] = system: Candida tropicalis ATCC 1369; assay: Broth microdilution MIC/MFC, antifungal; type: cell-based; conditions: ATCC1369
Experimental: as §4, §3

[10] = system: Candida albicans ATCC 10231; assay: Broth microdilution MIC/MFC, antifungal; type: cell-based; conditions: for MIC: ATCC10231; for MFC: ATCC10231, read-out: MFC
Experimental: as §4, §3

Candida auris CDC B11903 = assay: Broth microdilution MIC/MFC, antifungal; type: cell-based; conditions: Candidozyma auris, CDCB11903
Experimental: as §4, §3

[11] = system: Candida glabrata ATCC 15126; assay: Broth microdilution MIC/MFC, antifungal; type: cell-based; conditions: Nakaseomyces glabratus, ATCC15126
Experimental: as §4, §3

[12] = system: Candida lusitaniae ATCC 3449; assay: Broth microdilution MIC/MFC, antifungal; type: cell-based; conditions: Clavispora lusitaniae, ATCC3449
Experimental: as §4, §3

[13] = system: Candida krusei ATCC 14243; assay: Broth microdilution MIC/MFC, antifungal; type: cell-based; conditions: Pichia kudriavzevii, ATCC14243
Experimental: as §4, §3

[14] = system: reference strains of bacteria; assay: Positive control antibiotics, broth microdilution MIC; type: cell-based; conditions: range over the bacteria
Experimental: The reference antibiotics used during our studies for the selected species of reference bacteria were ciprofloxacin and cefuroxime (Merck KGaA, Darmstadt, Germany). Nystatin (Merck KGaA, Darmstadt, Germany), a known antifungal antibiotic, was used as a positive control for Candida spp.
All reference antimicrobials against bacteria or fungi were tested in a final concentration range from 0.0049 to 10 µg/mL. The tested Schiff bases were two-fold diluted in the concentration range from 0.49 to 1000 μg/mL in culture broth medium for bacteria or fungi. The medium with DMSO at the final concentrations and without the tested Schiff bases served as a control—no microbial growth inhibition was observed. […]
The minimal inhibitory concentration (MIC) was determined with the microdilution technique using 96-well polystyrene microplates (Medlab, Poland), as indicated by the European Committee on Antimicrobial Susceptibility Testing (EUCAST) guidelines. […] After the incubation, the results were spectrophotometrically determined in Biotek ELx800 (Biokom, Janki, Poland) at 600 nm (OD600). The lowest concentration of the tested compounds with the absence of bacterial growth was determined as an MIC. […]

| melting point [°C] | MIC [1] [µg/mL] | MIC [2] [µg/mL] | MIC [3] [µg/mL] | MIC [4] [µg/mL] | MIC [5] [µg/mL] | MIC [6] [µg/mL] | MIC [7] [µg/mL] | MIC [8] [µg/mL] | MIC [9] [µg/mL] | MIC [10] [µg/mL] | MIC (Candida auris CDC B11903) [µg/mL] | SMILES | IC50 (PC3; 72 h (table footnote)) [µM] | IC50 (PC3; same value in µg/mL) [µg/mL] | IC50 (MDA-MB-231; 72 h (table footnote)) [µM] | IC50 (MDA-MB-231; same value in µg/mL) [µg/mL] | IC50 at 72 h (MTT cell viability assay; 72 h (table footnote)) [µM] | IC50 at 72 h (MTT cell viability assay; same value in µg/mL) [µg/mL] | MFC [8] [µg/mL] | MFC [10] [µg/mL] | other results |
| --- | --- | --- | --- | --- | --- | --- | --- | --- | --- | --- | --- | --- | --- | --- | --- | --- | --- | --- | --- | --- | --- |
| 203 to 204 | > 1000 | > 1000 | > 1000 | > 1000 | > 1000 | > 1000 | > 1000 | 500 (≈ 1.52 mM) | 1000 (≈ 3.05 mM) | 500 (≈ 1.52 mM) | 1000 (≈ 3.05 mM) | COc1cccc(C=Nn2c(-c3cccc(F)c3)n[nH]c2=S)c1 [RO11, 5-(3-fluorophenyl)-4-[(3-methoxybenzylidene)amino]-2,4-dihydro-3H-1,2,4-triazole-3-thione] | > 100 | > 38.8 | > 100 | > 38.8 | > 100 | > 38.8 | > 1000 | 1000 (≈ 3.05 mM) | MIC [11]: > 1000 µg/mL; MIC [12]: > 1000 µg/mL; MIC [13]: 1000 µg/mL (≈ 3.05 mM) |
| 140 to 143 | > 1000 | > 1000 | > 1000 | > 1000 | > 1000 | > 1000 | > 1000 | 500 (≈ 1.52 mM) | 500 (≈ 1.52 mM) | 125 (≈ 0.381 mM) | 500 (≈ 1.52 mM) | COc1ccccc1C=Nn1c(-c2cccc(F)c2)n[nH]c1=S [RO12, 5-(3-fluorophenyl)-4-[(2-methoxybenzylidene)amino]-2,4-dihydro-3H-1,2,4-triazole-3-thione] | > 100 | > 38.8 | > 100 | > 38.8 | 98.1 | 38.1 | > 1000 | > 1000 | MFC [9]: > 1000 µg/mL; MFC (Candida auris CDC B11903): > 1000 µg/mL; MIC [11]: > 1000 µg/mL; MFC [12]: > 1000 µg/mL; MIC [12]: 500 µg/mL (≈ 1.52 mM); MIC [13]: 1000 µg/mL (≈ 3.05 mM) |
| – | – | – | – | – | – | – | – | – | – | – | – | CO/N=C(\C(=O)N[C@@H]1C(=O)N2C(C(=O)O)=C(COC(N)=O)CS[C@H]12)c1ccco1 [cefuroxime] | – | – | – | – | – | – | – | – | MIC [14]: 0.24 to 62.5 µg/mL (≈ 0.000566 to 0.147 mM) |
| – | – | – | – | – | – | – | – | – | – | – | – | O=C(O)c1cn(C2CC2)c2cc(N3CCNCC3)c(F)cc2c1=O [ciprofloxacin] | – | – | – | – | – | – | – | – | MIC [14]: 0.24 to 0.98 µg/mL (≈ 0.000724 to 0.00296 mM) |
